Measured values published in US11773379B2, “Enzymes and reagents for measurement of short chain fatty acids” (SYSMEX CORPORATION, priority 2018, dated 2023).

Key:
[1] = test system: BKII (recombinant butyrate kinase derived from Acetoanaerobium sticklandii); assay: Substrate specificity of butyrate kinase BKII; assay type: biochemical; details: 100 mM sodium salt of fatty acid in second reagent, pH 7.5
Protocol: (§1) Various fatty acids shown in Table 1 were used as a substrate. The measurement was performed using a 7180 type Hitachi automatic analyzer (Hitachi High-Tech Corporation). […] PHARMA CORPORATION) • 5 U/mL ADP-HK II (ADP dependent hexokinase: […] PHARMA CORPORATION) […] In the composition of the second reagent, “sodium salts of various fatty acids” means any one kind of sodium caprylate, sodium caproate, sodium valerate, sodium isovalerate, sodium butyrate, sodium isobutyrate, sodium propionate, sodium acetate, sodium lactate, and sodium succinate. Isobutyric acid, valeric acid, isovaleric acid, caproic acid, and octanoic acid, which are commercially available fatty acids and are not sold as sodium salts, were adjusted to pH 7.5 with sodium hydroxide. […] [Measurement Parameters of Automatic Analyzer] • Analysis method: […]

[2] = test system: BKIII (recombinant butyrate kinase derived from Thermosediminibacter oceani); assay: Substrate specificity of butyrate kinase BKIII; assay type: biochemical; details: 100 mM sodium salt of fatty acid in second reagent, pH 7.5
Protocol: as §1

[3] = target: T1, acetate kinase (AK) (Escherichia coli, UniProt P0A6A3); assay: Comparative Example 1: measurement using acetate kinase, reaction recovery rate; assay type: biochemical, E. coli; details: 5 mM substrate
T1 construct: purchased Sigma-Aldrich Co. LLC
T1 sequence (P0A6A3 whole entry): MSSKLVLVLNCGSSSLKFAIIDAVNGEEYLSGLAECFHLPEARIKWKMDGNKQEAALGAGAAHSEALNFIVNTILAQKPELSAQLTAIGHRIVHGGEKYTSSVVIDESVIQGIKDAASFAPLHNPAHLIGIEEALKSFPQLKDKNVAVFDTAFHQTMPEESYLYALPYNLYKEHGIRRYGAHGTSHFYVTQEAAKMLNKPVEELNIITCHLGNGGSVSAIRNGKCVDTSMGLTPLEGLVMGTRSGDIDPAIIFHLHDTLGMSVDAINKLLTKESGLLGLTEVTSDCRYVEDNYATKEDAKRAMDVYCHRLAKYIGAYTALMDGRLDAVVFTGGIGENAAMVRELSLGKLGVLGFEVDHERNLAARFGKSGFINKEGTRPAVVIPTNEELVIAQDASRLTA
Protocol: (§2) It was examined whether butyric acid could be measured by using acetate kinase (AK) or propionic acid kinase (PK) instead of butyrate kinase. For comparison, measurement using BKIII was also performed.
(§3) Neutralized 100 mM acetic acid, butyric acid, and isobutyric acid were mixed with physiological saline to prepare a 5 mM acetic acid aqueous solution, a 5 mM butyric acid aqueous solution, and a 5 mM isobutyric acid aqueous solution, respectively.
(§4) The composition of the first reagent was the same as that of the first reagent used for examining the substrate specificity of Reference Example 7.
(§5) AK (Sigma-Aldrich Co. LLC., derived from E. coli), PK (MyBioSource, recombinant protein) and BKIII were added to 100 mM Tris-HCl (pH 7.5) (Sigma-Aldrich Co. LLC.), respectively, to prepare an enzyme solution containing each enzyme at a concentration of 1.25 to 40 U/mL.
(§6) The measurement was performed using a 7180 type Hitachi automatic analyzer (Hitachi High-Tech Corporation). The measurement parameters of the automatic analyzer were the same as in Example 2.
(§7) In the same manner as in Example 2, butyric acid and isobutyric acid in the sample were measured by the automatic analyzer. The reaction recovery rate (%) was calculated by dividing the measured value by the theoretical absorbance value. The theoretical absorbance is the absorbance when all the substrate (butyric acid or isobutyric acid) in the sample is converted to NADPH, and is calculated by the following formula. […] (Theoretical absorbance)= (substrate concentration in sample)×[(sample volume)/(sample volume+ first reagent amount+second reagent amount)]×(NADPH millimole molecular extinction coefficient at 340 nm)= 5×[3.5/(3.5+140+35)]×6.3= 0.617

[4] = test system: propionic acid kinase (PK); assay: Comparative Example 1: measurement using propionic acid kinase, reaction recovery rate; assay type: biochemical; details: 5 mM substrate
Protocol: as §2, §3, §4, §5, §6, §7

[5] = test system: BKIII; assay: Comparative Example 1: measurement using BKIII, reaction recovery rate; assay type: biochemical, Thermosediminibacter oceani; details: 5 mM substrate
Protocol: as §2, §3, §4, §5, §6, §7

[6] = test system: butyrate-acetoacetate-CoA transferase (EC 2.8.3.9); assay: Comparative Example 3: measurement using butyrate-acetoacetate-CoA transferase, reaction recovery rate; assay type: biochemical, E. coli; details: 60 μg/mL butyrate-acetoacetate-CoA transferase in second reagent; 5 mM substrate
Protocol: It was examined whether acetic acid and butyric acid could be measured by the reaction of formula (12), which is the reverse reaction of the formula (11), using butyrate-[…] transferase instead of butyrate kinase. […] The measurement was performed using a 7180 type Hitachi automatic analyzer (Hitachi High-Tech Corporation). […] LLC.) • 0.35 mM Acetoacetyl-CoA (Sigma-Aldrich Co. LLC.) • 2 mM MgCl2 (FUJIFILM Wako Pure Chemical Corporation) • 0.25 mM β-NADH (Oriental Yeast Co., Ltd.) • 5 U/mL 3-hydroxybutyrate dehydrogenase (FUJIFILM Wako Pure Chemical Corporation) […] LLC.) The measurement was performed using a 7180 type Hitachi automatic analyzer (Hitachi High-Tech Corporation). The measurement parameters of the automatic analyzer were the same as in Example 2.

[7] = Measurement of recombinant butyrate kinase activity (ADP-HK/G6PDH coupled, NADPH at 340 nm); specific activity, Km and Vmax; assay type: biochemical; details: with respect to butyric acid
Protocol: The enzymatic activity of BKII and BKIII with respect to butyric acid was measured based on the amount of ADP produced. In the Example 1, ADP produced by the action of butyrate kinase is used to produce NADPH by the action of ADP dependent hexokinase and glucose-6-phosphate dehydrogenase (see FIG. 1), and the amount of ADP produced was measured based on the change in absorbance at 340 nm due to the increase in NADPH. The measurement was performed using a 7080 type Hitachi automatic analyzer (Hitachi High-Tech Corporation).
[Composition of First Reagent] • 50 mM Tris-HCl (pH 7.5) (Sigma-Aldrich Co. LLC.) • 2 mM ATP (pH 7.5) (Oriental Yeast Co., Ltd.) • 2 mM MgCl2 (FUJIFILM Wako Pure Chemical Corporation) • 20 mM glucose (FUJIFILM Wako Pure Chemical Corporation) • 100 mM sodium butyrate (FUJIFILM Wako Pure Chemical Corporation) • 1 mM NADP (FUJIFILM Wako Pure Chemical Corporation) • 5 U/mL G6PDH II (Glucose-6-phosphate dehydrogenase: T-51, ASAHI KASEI PHARMA CORPORATION) • 5 U/mL ADP-HK II (ADP dependent hexokinase: T-92, ASAHI KASEI PHARMA CORPORATION) • 0.1% TN-100 (ADEKA Corporation)
[Composition of BKII Diluent] • 50 mM Tris-HCl (pH 7.5) (Sigma-Aldrich Co. LLC.) • 10 mM KCl (FUJIFILM Wako Pure Chemical Corporation)
[Composition of BKIII Diluent] • 50 mM Potassium phosphate buffer (pH 7.0) (Sigma-Aldrich Co. LLC.) • 0.1% TN-100 (ADEKA Corporation)
[Measurement Parameters of Automatic Analyzer] • Analysis method: Rate-A • Measurement wavelength (secondary/primary): 700 nm/340 nm • Reaction time: 5 minutes • Photometry point: 11 to 16 • Sample volume: 3 μL • First reagent amount: 150 μL […]
The sample was dispensed into a cuvette, then the first reagent was added and stirred. […] The cuvette was irradiated with light and the change in absorption at 340 nm was measured between about 200 seconds and about 296 seconds after the addition of the first reagent. […] The activity value (U/mL) of butyrate kinase was calculated from the following formula by defining the amount of enzyme that phosphorylates 1 μmol of butyric acid per minute as 1 U and using the value of the absorbance change per minute (ΔmAbs/min) calculated from the absorbance at the photometry point and the millimole extinction coefficient (c=6.3) of […] at 340 nm. […]
The specific activity (U/mg) is the activity value per 1 mg of enzyme. The protein (enzyme) concentrations of the BKII solution obtained in Reference Example 1 and the BKIII solution obtained in Reference Example 3 were quantified by the Bradford method, and the specific activities of BKII and BKIII with respect to butyric acid under the measurement conditions of Example 1 were calculated. […]
The Km and Vmax of BKII and BKIII with respect to butyric acid under the measurement conditions of Example 1 were determined by Lineweaver-Burk plot.

[8] = Thermal stability of recombinant butyrate kinase (remaining activity); assay type: physicochemical; details: after treatment at 37° C. for 30 minutes; 10 mM Tris-HCl pH 7.5, 100 mM KCl
Protocol: The thermal stability of BKII was examined based on the remaining activity after incubating approximately 0.3 mg/mL BKII at each temperature of 4 to 50° C. for 30 minutes in 10 mM Tris-HCl buffer (pH 7.5) containing 100 mM KCl. The thermal stability of BKIII was examined based on the remaining activity after incubating approximately 1 mg/mL BKIII in 50 mM potassium phosphate buffer (pH 7) containing 0.1% TN-100 (ADEKA Corporation) at each temperature of 4 to 80° C. for 30 minutes. The remaining activity was measured in the same manner as in Example 1. From FIGS. 12 and 13, the thermal stability (remaining activity) of BKII was 50% or more after treatment at 37° C. for 30 minutes, and the thermal stability (remaining activity) of BKIII was 85% or more after treatment at 70° C. for 30 minutes.
The thermal stability of BKIII, Thermosediminibacter oceani-derived butyrate kinase (ToBK2) prepared in Reference Example 4, Natranaerobius thermophilus-derived butyrate kinase (NtBK) prepared in Reference Example 5, and Symbiobacterium thermophilum-derived butyrate kinase (StBK) prepared in Reference Example 6 were compared. Specifically, each butyrate kinase was added to a 50 mM potassium phosphate buffer (pH 7) containing 0.1% TN-100 so that the concentration is about 1 mg/mL, and the remaining activity after incubating at 65° C. for 30 minutes was measured. The remaining activity was measured in the same manner as in Example 1.

Molecule: CC(=O)O [Acetic acid]
- substrate specificity, relative value when the activity value with respect to butyric acid is 100 [1]: 1%
- substrate specificity, relative value when the activity value with respect to butyric acid is 100 [2]: 1%
- reaction recovery rate ([3]; AK activity value in reaction mixed solution 0.3 U/mL): 16%
- reaction recovery rate ([3]; AK activity value in reaction mixed solution 0.5 U/mL): 28%
- reaction recovery rate ([3]; AK activity value in reaction mixed solution 1.0 U/mL): 44%
- reaction recovery rate ([3]; AK activity value in reaction mixed solution 2.0 U/mL): 62%
- reaction recovery rate ([3]; AK activity value in reaction mixed solution 4.0 U/mL): 78%
- reaction recovery rate ([3]; AK activity value in reaction mixed solution 8.0 U/mL): 88%
- reaction recovery rate ([4]; PK activity value in reaction mixed solution 0.3 U/mL): 0%
- reaction recovery rate ([4]; PK activity value in reaction mixed solution 0.5 U/mL): 2%
- reaction recovery rate ([4]; PK activity value in reaction mixed solution 1.0 U/mL): 3%
- reaction recovery rate ([4]; PK activity value in reaction mixed solution 2.0 U/mL): 9%
- reaction recovery rate ([4]; PK activity value in reaction mixed solution 4.0 U/mL): 21%
- reaction recovery rate ([4]; PK activity value in reaction mixed solution 8.0 U/mL): 39%
- reaction recovery rate ([5]; BKIII activity value in reaction mixed solution 0.3 U/mL): 0%
- reaction recovery rate ([5]; BKIII activity value in reaction mixed solution 0.5 U/mL): 0%
- reaction recovery rate ([5]; BKIII activity value in reaction mixed solution 1.0 U/mL): 0%
- reaction recovery rate ([5]; BKIII activity value in reaction mixed solution 2.0 U/mL): 0%
- reaction recovery rate ([5]; BKIII activity value in reaction mixed solution 4.0 U/mL): 1%
- reaction recovery rate ([5]; BKIII activity value in reaction mixed solution 8.0 U/mL): 2%
- Reaction recovery rate (%) [6]: 1%

B1: BKII: recombinant butyrate kinase derived from Acetoanaerobium sticklandii obtained in Reference Example 1 (T7 tag and His tag; SEQ ID NO: 17) (protein, listed as Acetoanaerobium sticklandii)
chain: MEGTMSTYKILAINPGSTSTKIAVYENETQIMEKTLRHSTEEINKYEKIFDQFEFRKNVIVDAVSEAGIAIEELDAVVGRGGLLKPIKGGTYEVSDELIAGLKEPYLGEHASNLGGIIAKEIADAALAPSFIVDPVVVDEMNDVARISGMPEIPRFSIFHALNQKATARRFASEIGKSYEDINVIVAHMGGGVSVGAHEKGRVIDVNNALDGEGPFSPERAGGLPVGDLAKLCFSGKYTHAQIKKLLKGEGGIVAYLGTNDARDVEKMIAEGDEKAKLIYEAMAYQVAKEIGSCATVLKGKVDAIILTGGIAYSEMITTWIKERVSFIADVKIYAGEDEMSALAQGALRVLREEEKPQRYEA
modifications: T7 tag and His tag
- activity value of butyrate kinase ([7]; enzyme solution, 37° C., Tris-HCl pH 7.5): about 340 U/mL
- Km ([7]; Lineweaver-Burk plot): 4.2 mM
- Vmax ([7]; Lineweaver-Burk plot): 1100 U/mg
- specific activity ([7]; measurement conditions of Example 1, protein by Bradford method): about 337 U/mg
- thermal stability (remaining activity) [8]: ≥ 50%
